# How the values were obtained:
# purple nutsedge = assay: Test B pre/postemergence purple nutsedge; assay type: in vivo, Cyperus rotundus
# How it was run: (§1)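 Test chemicals in a non-phytotoxic solvent mixture with surfactant were sprayed preemergence onto planted seeds and postemergence onto plants 2 to 18 cm tall (1- to 4-leaf stage). After twelve to sixteen days in a greenhouse, injury was visually rated against untreated controls from 0 (no effect) to 10 (complete control).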
# sugar beet = assay: Test B pre/postemergence sugar beet; assay type: in vivo, Beta vulgaris
# How it was run: as §1
# soybean = assay: Test B pre/postemergence soybean; assay type: in vivo, Glycine max
# How it was run: as §1
# rice = assay: Test B flood test rice; assay type: in vivo, Oryza sativa
# How it was run: (§2)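 Plants were grown to the 2-leaf stage before treatment with test chemical, then held in a greenhouse for twelve to sixteen days. Injury was visually rated against untreated controls on a 0–10 scale, where 0 is no effect and 10 is complete control.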
# pigweed = assay: Test B pre/postemergence pigweed; assay type: in vivo, Amaranthus retroflexus
# How it was run: as §1
# rape = assay: Test B pre/postemergence rape; assay type: in vivo, Brassica napus
# How it was run: as §1
# duck salad = assay: Test B flood test duck salad; assay type: in vivo, Heteranthera limosa
# How it was run: as §2
# bamyardgrass = assay: Test B flood test barnyardgrass; assay type: in vivo, Echinochloa crus-galli
# How it was run: as §2
# bedstraw = assay: Test B pre/postemergence bedstraw; assay type: in vivo, Galium aparine; conditions: Preemergence, Rate 62 g/ha; scale 0 to 10 (0 no effect, 10 complete control)
# How it was run: as §1
# wild oat = assay: Test B pre/postemergence wild oat; assay type: in vivo, Avena fatua
# How it was run: as §1
# blackgrass = assay: Test B pre/postemergence blackgrass; assay type: in vivo, Alopecurus myosuroides
# How it was run: as §1
# smallflower flatsedge = assay: Test B flood test smallflower flatsedge; assay type: in vivo, Cyperus difformis
# How it was run: as §2
# crabgrass = assay: Test B pre/postemergence crabgrass; assay type: in vivo, Digitaria sanguinalis
# How it was run: as §1
# surinam grass = assay: Test B pre/postemergence surinam grass; assay type: in vivo, Brachiaria decumbens
# How it was run: as §1
# velvetleaf = assay: Test B pre/postemergence velvetleaf; assay type: in vivo, Abutilon theophrasti
# How it was run: as §1
# morningglory = assay: Test B pre/postemergence morningglory; assay type: in vivo, Ipomoea hederacea
# How it was run: as §1
# wheat = assay: Test B pre/postemergence wheat; assay type: in vivo, Triticum aestivum
# How it was run: as §1
# giant foxtail = assay: Test B pre/postemergence giant foxtail; assay type: in vivo, Setaria faberii
# How it was run: as §1
# cocklebur = assay: Test B pre/postemergence cocklebur; assay type: in vivo, Xanthium strumarium
# How it was run: as §1
# corn = assay: Test B pre/postemergence corn; assay type: in vivo, Zea mays
# How it was run: as §1
# [1] = Postemergence, Rate 62 g/ha, scale of 0 to 10, 0 is no effect, 10 is complete control
# [2] = Postemergence, Rate 125 g/ha, scale of 0 to 10 where 0 is no effect and 10 is complete control
# [3] = Postemergence, Rate 250 g/ha, scale of 0 to 10, 0 is no effect, 10 is complete control
# [4] = Postemergence, Rate 500 g/ha, scale of 0 to 10 where 0 is no effect and 10 is complete control
# [5] = Preemergence, Rate 62 g/ha, scale 0 to 10 (0 no effect, 10 complete control)
# [6] = Preemergence, Rate 125 g/ha, scale of 0 to 10 where 0 is no effect and 10 is complete control
# [7] = Preemergence, Rate 500 g/ha, scale of 0 to 10 where 0 is no effect and 10 is complete control
# [8] = Rate 62 g/ha, flood test species, Pre-emergence, visual evaluation after twelve to sixteen days
# [9] = Rate 125 g/ha, under heading Pre-emergence, flood test species, visual evaluation after twelve to sixteen days
# [10] = Rate 250 g/ha, Pre-emergence (flood test species), scale 0 to 10, 0 is no effect, 10 is complete control
# [11] = Rate 500 g/ha, Pre-emergence section of Table B, 0 to 10 scale (0 no effect, 10 complete control)
smiles,measurement,setting,value
CCc1nc(C)c(C(C)n2c(=O)on(C(=O)N(c3ccc(Cl)cc3)C(C)C)c2=O)s1 (stereo not drawn) [Compound 590],Nutsedge plant response rating,purple nutsedge; [1],0
same,"Plant response rating, Nutsedge",purple nutsedge; [2],0
same,Nutsedge plant response rating,purple nutsedge; [3],0
same,"Plant response rating, Nutsedge",purple nutsedge; [4],0
same,Nutsedge plant response rating,purple nutsedge; [5],0
same,Nutsedge plant response rating,purple nutsedge; [6],0
same,Nutsedge plant response rating,purple nutsedge; [7],0
same,"Plant response rating, Sugarbeets",sugar beet; [2],0
same,Sugarbeets plant response rating,sugar beet; [3],0
same,"Plant response rating, Sugarbeets",sugar beet; [4],0
same,Sugarbeets plant response rating,sugar beet; [5],0
same,Sugarbeets plant response rating,sugar beet; [6],0
same,Sugarbeets plant response rating,sugar beet; [7],0
same,"Plant response rating, Soybean",soybean; [2],1
same,Soybean plant response rating,soybean; [3],3
same,"Plant response rating, Soybean",soybean; [4],3
same,Soybean plant response rating,soybean; [5],0
same,Soybean plant response rating,soybean; [6],0
same,Soybean plant response rating,soybean; [7],0
same,"Plant response rating, Rice (0 to 10 scale, 0 is no effect, 10 is complete control)",rice; [8],0
same,"Rice plant response rating (0 to 10 scale, 0 is no effect, 10 is complete control)",rice; [9],0
same,Rice plant response rating,rice; [10],0
same,Rice plant response rating,rice; [11],0
same,"Plant response rating, Redroot pigweed",pigweed; [2],0
same,Redroot pigweed plant response rating,pigweed; [3],0
same,"Plant response rating, Redroot pigweed",pigweed; [4],0
same,Redroot pigweed plant response rating,pigweed; [5],0
same,Redroot pigweed plant response rating,pigweed; [6],0
same,Redroot pigweed plant response rating,pigweed; [7],0
same,Rape plant response rating,rape; [1],0
same,"Plant response rating, Rape",rape; [2],0
same,Rape plant response rating,rape; [3],0
same,"Plant response rating, Rape",rape; [4],0
same,Rape plant response rating,rape; [5],0
same,Rape plant response rating,rape; [6],0
same,Rape plant response rating,rape; [7],0
same,"Plant response rating, Ducksalad (0 to 10 scale, 0 is no effect, 10 is complete control)",duck salad; [8],0
same,"Ducksalad plant response rating (0 to 10 scale, 0 is no effect, 10 is complete control)",duck salad; [9],0
same,Ducksalad plant response rating,duck salad; [10],0
same,Ducksalad plant response rating,duck salad; [11],0
same,"Plant response rating, Barnyardgrass (0 to 10 scale, 0 is no effect, 10 is complete control)",bamyardgrass; [8],0
same,"Barnyardgrass plant response rating (0 to 10 scale, 0 is no effect, 10 is complete control)",bamyardgrass; [9],0
same,Barnyardgrass plant response rating,bamyardgrass; [10],0
same,Barnyardgrass plant response rating,bamyardgrass; [11],0
same,Bedstraw plant response rating,bedstraw,0
same,"Plant response rating, Wild oats",wild oat; [2],0
same,Wild oats plant response rating,wild oat; [3],0
same,"Plant response rating, Wild oats",wild oat; [4],0
same,Wild oats plant response rating,wild oat; [5],0
same,Wild oats plant response rating,wild oat; [6],0
same,Wild oats plant response rating,wild oat; [7],0
same,Blackgrass plant response rating,blackgrass; [1],0
same,"Plant response rating, Blackgrass",blackgrass; [2],0
same,Blackgrass plant response rating,blackgrass; [3],0
same,"Plant response rating, Blackgrass",blackgrass; [4],0
same,Blackgrass plant response rating,blackgrass; [5],0
same,Blackgrass plant response rating,blackgrass; [6],0
same,Blackgrass plant response rating (0 to 10 scale),"blackgrass; Preemergence, Rate 250 g/ha",0
same,Blackgrass plant response rating,blackgrass; [7],0
same,"Plant response rating, S. Flatsedge (0 to 10 scale, 0 is no effect, 10 is complete control)",smallflower flatsedge; [8],0
same,"S. Flatsedge plant response rating (0 to 10 scale, 0 is no effect, 10 is complete control)",smallflower flatsedge; [9],0
same,S. Flatsedge plant response rating,smallflower flatsedge; [10],0
same,S. Flatsedge plant response rating,smallflower flatsedge; [11],0
same,Crabgrass plant response rating,crabgrass; [1],0
same,"Plant response rating, Crabgrass",crabgrass; [2],0
same,Crabgrass plant response rating,crabgrass; [3],0
same,"Plant response rating, Crabgrass",crabgrass; [4],2
same,Crabgrass plant response rating,crabgrass; [5],0
same,Crabgrass plant response rating,crabgrass; [6],0
same,Crabgrass plant response rating,crabgrass; [7],3
same,B. signalgrass plant response rating,surinam grass; [1],0
same,"Plant response rating, B. signalgrass",surinam grass; [2],0
same,B. signalgrass plant response rating,surinam grass; [3],0
same,"Plant response rating, B. signalgrass",surinam grass; [4],0
same,B. signalgrass plant response rating,surinam grass; [5],0
same,B. signalgrass plant response rating,surinam grass; [6],0
same,"B. signalgrass plant response rating (0 to 10 scale, 0 is no effect, 10 is complete control)","surinam grass; Preemergence, Rate 250 g/ha",0
same,B. signalgrass plant response rating,surinam grass; [7],0
same,"Plant response rating, Velvetleaf",velvetleaf; [2],0
same,Velvetleaf plant response rating,velvetleaf; [3],2
same,"Plant response rating, Velvetleaf",velvetleaf; [4],2
same,Velvetleaf plant response rating,velvetleaf; [5],0
same,Velvetleaf plant response rating,velvetleaf; [6],0
same,Velvetleaf plant response rating,velvetleaf; [7],0
same,Morningglory plant response rating,morningglory; [1],2
same,"Plant response rating, Morningglory",morningglory; [2],3
same,Morningglory plant response rating,morningglory; [3],3
same,"Plant response rating, Morningglory",morningglory; [4],4
same,Morningglory plant response rating,morningglory; [5],0
same,Morningglory plant response rating,morningglory; [6],0
same,Morningglory plant response rating,morningglory; [7],0
same,"Plant response rating, Wheat",wheat; [2],0
same,Wheat plant response rating,wheat; [3],0
same,"Plant response rating, Wheat",wheat; [4],0
same,Wheat plant response rating,wheat; [5],0
same,Wheat plant response rating,wheat; [6],0
same,Wheat plant response rating,wheat; [7],0
same,Giant foxtail plant response rating,giant foxtail; [1],0
same,"Plant response rating, Giant foxtail",giant foxtail; [2],0
same,Giant foxtail plant response rating,giant foxtail; [3],0
same,"Plant response rating, Giant foxtail",giant foxtail; [4],0
same,Giant foxtail plant response rating,giant foxtail; [5],0
same,Giant foxtail plant response rating,giant foxtail; [6],0
same,Giant foxtail plant response rating,giant foxtail; [7],7
same,Cocklebur plant response rating,cocklebur; [1],0
same,"Plant response rating, Cocklebur",cocklebur; [2],0
same,Cocklebur plant response rating,cocklebur; [3],0
same,"Plant response rating, Cocklebur",cocklebur; [4],0
same,Cocklebur plant response rating,cocklebur; [5],0
same,Cocklebur plant response rating,cocklebur; [6],0
same,Cocklebur plant response rating (0 to 10 scale),"cocklebur; Preemergence, Rate 250 g/ha",0
same,Cocklebur plant response rating,cocklebur; [7],0
same,Corn plant response rating,corn; [1],0
same,"Plant response rating, Corn",corn; [2],0
same,Corn plant response rating,corn; [3],0
same,"Plant response rating, Corn",corn; [4],0
same,Corn plant response rating,corn; [5],0
same,Corn plant response rating,corn; [6],0
same,Corn plant response rating (0 to 10 scale),"corn; Preemergence, Rate 250 g/ha",0
same,Corn plant response rating,corn; [7],0

# — patent US6737383B1, “Herbicidal oxadiazolidines” (priority 1999, dated 2004)
